Drawing on PubChem BioAssay (NCI), this text covers TGI for 7 compounds.

Some test systems named below: UACC-62 melanoma; HCT-116 colon; A549 NSCLC; PC-3 prostate; COLO 205 colon; IGROV1 ovarian; OVCAR-4 ovarian; SR leukemia; CAKI-1 renal; MOLT-4 leukemia; UO-31 renal; TK-10 renal; MCF7 breast; MALME-3M melanoma; K-562 leukemia; HCT-15 colon; SK-OV-3 ovarian; LOX IMVI melanoma; HOP-62 NSCLC; HCC-2998 colon.
Assay in all cases: DTP human tumour cell line panel, 48 h

Structures are written as SMILES.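 Cells were grown in 96-well plates and exposed to each compound for 48 hours at five concentrations; endpoints were interpolated linearly between bracketing concentrations, or set to the highest concentration if not reached. Definition used: TGI = concentration required for complete inhibition of growth.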 A value given as a limit tells only on which side of the number the result lay.

Regarding `COC(=O)C1=COC(OC2OC(CO)C(O)C(O)C2O)C2C3CN4CCc5c([nH]c6ccccc56)C4(CC12)O3` (stereo unspecified), the concentration for total growth inhibition (TGI) in the assay with UACC-62 melanoma, in the assay on HCT-116 colon, in the assay on A549 NSCLC, with PC-3 prostate, in the assay on COLO 205 colon and in the assay on IGROV1 ovarian was more than 100 µM throughout. Also, the total growth inhibition concentration (TGI) in the assay with OVCAR-4 ovarian, in the assay on SR leukemia, with CAKI-1 renal, in the assay with MOLT-4 leukemia, in the assay with UO-31 renal and in the assay with TK-10 renal was more than 100 µM each time. Besides, the TGI with MCF7 breast, in the assay on MALME-3M melanoma, in the assay on K-562 leukemia, in the assay with HCT-15 colon, in the assay with SK-OV-3 ovarian and in the assay on LOX IMVI melanoma was more than 100 µM throughout. In addition, in the assay on HOP-62 NSCLC, the concentration for total growth inhibition (TGI) is more than 100 µM.
`COC(=O)C(C)(C)[C@@H]1OC(=O)N(S(=O)(=O)c2c(C)cc(C)cc2C)[C@H]1C(C)C`: the concentration for total growth inhibition (TGI) in the assay with UACC-62 melanoma, in the assay with HCT-116 colon, in the assay with A549 NSCLC, in the assay on HCC-2998 colon, in the assay with PC-3 prostate and in the assay with COLO 205 colon was more than 100 µM each time. Moreover, the concentration for total growth inhibition (TGI) in the assay on IGROV1 ovarian, in the assay on OVCAR-4 ovarian, with SR leukemia, in the assay on MOLT-4 leukemia, in the assay with UO-31 renal and in the assay with TK-10 renal was more than 100 µM throughout. In addition, the TGI in the assay on MCF7 breast, in the assay with MALME-3M melanoma, in the assay with K-562 leukemia, in the assay with HCT-15 colon, with SK-OV-3 ovarian and with LOX IMVI melanoma was more than 100 µM in each case. Further, the total growth inhibition concentration (TGI) with HOP-62 NSCLC was more than 100 µM.
For the compound `COc1ccc(-c2cc(-c3ccc(O)cc3O)c(C#N)c(=O)[nH]2)cc1`, the TGI with UACC-62 melanoma worked out at 36.2 µM; with HCT-116 colon, 38.7 µM; in the assay with A549 NSCLC, 62 µM; in the assay with PC-3 prostate, 35.4 µM; in the assay on COLO 205 colon it was 31.6 µM; in the assay with OVCAR-4 ovarian it was 60 µM. For the same compound, the TGI with SR leukemia is 53.4 µM; in the assay with CAKI-1 renal it was 64.1 µM; with MOLT-4 leukemia it was 55.1 µM; in the assay with UO-31 renal, 69.6 µM; in the assay with TK-10 renal it was more than 100 µM; in the assay on MCF7 breast, more than 100 µM. Besides, the TGI is 70.4 µM in the assay on MALME-3M melanoma; 77 µM in the assay with K-562 leukemia; more than 100 µM in the assay with HCT-15 colon; 33.8 µM with SK-OV-3 ovarian; 31.6 µM in the assay with LOX IMVI melanoma; 41.1 µM in the assay with HOP-62 NSCLC.
Turning to `C=C/C(C)=C\CC1[C@](C)(O)CC[C@H]2C(C)(C)C(O)CC[C@]12C` (stereo partly specified), the TGI in the assay on UACC-62 melanoma, in the assay with HCT-116 colon, in the assay on A549 NSCLC, with PC-3 prostate, with COLO 205 colon and with IGROV1 ovarian was more than 100 µM throughout. The TGI in the assay with OVCAR-4 ovarian, in the assay with SR leukemia, with CAKI-1 renal, with MOLT-4 leukemia, with UO-31 renal and with TK-10 renal was more than 100 µM throughout. The TGI in the assay with MCF7 breast, in the assay with MALME-3M melanoma, with K-562 leukemia, in the assay on HCT-15 colon and in the assay on LOX IMVI melanoma was more than 100 µM throughout.
On to `CCCN(CCC)C(=S)N/N=C/c1ccccn1`, for which the TGI in the assay on UACC-62 melanoma amounted to 1.91 µM; in the assay on HCT-116 colon it was 1.58 µM; with A549 NSCLC it was 11.9 µM; in the assay on HCC-2998 colon, 19.6 µM; in the assay with PC-3 prostate it was 16.1 µM; in the assay on COLO 205 colon, 0.509 µM. In addition, the concentration for total growth inhibition (TGI) amounted to 0.9 µM with OVCAR-4 ovarian; 0.247 µM with SR leukemia; 15.9 µM in the assay with CAKI-1 renal; 4 µM with UO-31 renal; 15.1 µM with TK-10 renal; 6.05 µM in the assay with MALME-3M melanoma. Further, the concentration for total growth inhibition (TGI) in the assay on HCT-15 colon turned out to be 16.8 µM; with SK-OV-3 ovarian it was 28.6 µM; in the assay with LOX IMVI melanoma, 13.4 µM; in the assay with HOP-62 NSCLC, 3.18 µM.
In the case of `COc1cc(/C=N\c2nc(-c3ccc(NS(=O)(=O)c4ccc(Cl)c(OC)c4)cc3)cs2)ccc1O`, the TGI in the assay on UACC-62 melanoma was 36.5 µM; in the assay on HCT-116 colon, more than 100 µM; with A549 NSCLC, more than 100 µM; with PC-3 prostate it was more than 100 µM; in the assay on COLO 205 colon, more than 100 µM; in the assay with IGROV1 ovarian it was more than 100 µM. For the same compound, the TGI is more than 100 µM with OVCAR-4 ovarian; more than 100 µM in the assay with SR leukemia; more than 100 µM in the assay with CAKI-1 renal; more than 100 µM with MOLT-4 leukemia; more than 100 µM in the assay with UO-31 renal; 56.2 µM in the assay on MCF7 breast. Also, the TGI with MALME-3M melanoma, with K-562 leukemia, in the assay with HCT-15 colon, in the assay on SK-OV-3 ovarian, in the assay with LOX IMVI melanoma and in the assay on HOP-62 NSCLC was more than 100 µM in each case.
As to `CN(C)CCNC(=O)c1cccc2c(NC(CS)C(=O)O)c3ccccc3[n+](C)c12` (stereo unspecified), the total growth inhibition concentration (TGI) with UACC-62 melanoma, in the assay with HCT-116 colon, in the assay with A549 NSCLC, with HCC-2998 colon, in the assay with PC-3 prostate and in the assay with COLO 205 colon was more than 100 µM throughout. In addition, the TGI with IGROV1 ovarian, in the assay with OVCAR-4 ovarian, with SR leukemia, in the assay with MOLT-4 leukemia, in the assay on UO-31 renal and in the assay with TK-10 renal was more than 100 µM each time. Further, the total growth inhibition concentration (TGI) in the assay with MCF7 breast, with MALME-3M melanoma, in the assay with K-562 leukemia, with HCT-15 colon, in the assay with SK-OV-3 ovarian and with LOX IMVI melanoma was more than 100 µM throughout. Besides, the concentration for total growth inhibition (TGI) with HOP-62 NSCLC was more than 100 µM.
